{
  "source": "patent US20240425574A1",
  "about": "“ANTI-PDGF-B ANTIBODIES AND PHARMACEUTICAL COMPOSITION THEREOF” (Regeneron Pharmaceuticals, Inc., priority 2021, published 2024)",
  "key": {"PDGF-AA": {"test_system": "PDGF-AA", "settings": "read-out: IC50 Proliferation, PDGF-AA; PASMC; IncuCyte cell confluence at day 6", "protocol": "(§2) For calcium flux and proliferation assays, primary Human Pulmonary Smooth Muscle Cells were seeded onto 96-well assay plates at a cell density of 10,000/well and 2,000/well respectively. The smooth muscle cells were cultured in supplier recommended smooth muscle media in a humidified incubator at 37° C. in 5% CO2.\n(§3) Proliferation was assessed via the IncuCyte live cell imaging system (Essen BioScience). Following overnight plating, the complete media was replaced with serum free smooth muscle media supplemented with 0.1% BSA. […] Plates were imaged every 3 hours over the course of 7 days and proliferation was determined by measuring cell confluence in the well at day 6 via the IncuCyte Base Analysis software (Sartorius)."}, "Human PDGF-AA": {"test_system": "Human PDGF-AA", "experiment": "FLIPR calcium flux in PASMC (Example 17)", "assay_type": "cell-based", "settings": "3 nM PDGF-AA constant", "procedure": "(§1) Upon reaching 100% confluency within each well, PDGF driven calcium flux was assessed via the FLIPR® Calcium 5 Assay Kit on the FLIPR Tetra System (Molecular Devices) following the manufacturer's protocol. In brief, complete media was replaced with 50 μL assay media (DMEM-0.1% BSA-1× Penicillin/Streptomycin/L-Glutamine). The Calcium 5 dye was then reconstituted in the supplied buffer in the presence of probenecid. […] Human PDGF-AA, PDGF-BB and PDGF-DD serial dilutions and inhibitory constants were generated on separate dosing plates. A 0.5 nM concentration of PDGF-BB, 1 nM concentration of PDGF-DD and a 3 nM concentration of PDGF-AA were chosen as constants to assess antibody and small molecule inhibition. […] Antibodies were pre-incubated with PDGF proteins for 30 minutes before addition onto the cells via the FLIPR tetra system. […] These calcium traces were analyzed for their Max-Min values using the SoftMax Pro Software (Molecular Devices)."}, "Human PDGF-DD": {"test_system": "Human PDGF-DD", "settings": "read-out: IC50 Calcium Flux, PDGF-DD; PASMC; 1 nM PDGF-DD constant", "procedure": "as §1"}, "PDGF-BB [1]": {"molecular_target": "T1, PDGF-BB (Homo sapiens, UniProt P01127)", "T1 sequence (P01127 82-190 limits assumed)": "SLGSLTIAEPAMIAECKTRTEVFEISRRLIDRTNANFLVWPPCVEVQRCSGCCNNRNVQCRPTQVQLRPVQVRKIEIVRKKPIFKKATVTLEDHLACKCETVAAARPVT", "experiment": "IncuCyte proliferation of PASMC (Example 17)", "assay_type": "cell-based", "design": "purchased R&D Systems 220-GMP", "settings": "IncuCyte cell confluence at day 6", "protocol": "as §2, §3"}, "PDGF-BB [2]": {"molecular_target": "T1, PDGF-BB", "experiment": "FLIPR calcium flux in PASMC (Example 17)", "assay_type": "cell-based", "design": "purchased R&D Systems 220-GMP", "procedure": "as §1"}, "PDGF-DD": {"test_system": "PDGF-DD", "settings": "read-out: IC50 Proliferation, PDGF-DD; PASMC; IncuCyte cell confluence at day 6", "protocol": "as §2, §3"}, "hypoxia/sugen PAH mice [3]": {"test_system": "hypoxia/sugen PAH mice", "experiment": "Hypoxia/Sugen PAH mice, therapeutic treatment (Study 1)", "assay_type": "in vivo, mouse", "settings": "dose mg/kg: H4H13145P 25, Macitentan 30, REGN2176 25", "procedure": "For the first study, 14 to 16 weeks old male humanized PDGFRβ^hu-hu mice, (MAID #1639) were used. Mice were separated into treatment groups by weight such that starting body weights were similar among different groups. […] Mice in hypoxia chamber were given VEGF receptor inhibitor Sugen5146 at 20 mg/kg subcutaneously once a week for 6 weeks. The mice were administered antibodies starting on day 21 for 3 weeks as outlined in Table 11. […] Mice were anesthetized with isoflurane and were kept at approximately 37° C. using a heated platform (Heated Hard Pad 1, Braintree Scientific) and circulating heated water pump (T/Pump Classic, Gaymar Industries). The neck area for each mouse was prepared for surgery by depilating over the right common Carotid artery and right Jugular vein. An incision was made, and the right Jugular vein was isolated with care as to not damage the Carotid artery and/or the Vagus nerve. […] The catheter was connected to pressure/volume instrument (MPVS-300, Millar Instruments, Inc.) that measured heart rate as well as both diastolic and systolic right ventricular pressures. […] The parameters analyzed were right ventricular systolic pressures (RVSP), heart rate (HR) and rate of right ventricular pressure rise (dP/dt max). […] RV hypertrophy was calculated by Fulton index as the weight ratio of RV and (LV+septum). […]"}, "monocrotaline rats [4]": {"test_system": "monocrotaline rats", "experiment": "4 weeks Monocrotaline PAH rats, preventive treatment (Example 10 study 1)", "assay_type": "in vivo, rat", "procedure": "Six to seven weeks old male Sprague Dawley rats were used. Rats were separated into treatment groups such that body weights were similar among different groups. […] Standard of care group was orally administered macitentan at 30 mg/kg daily for 28 days. At day one, rats were subcutaneously administered either 40 mg/kg of monocrotaline or 5 mL/kg of saline. By the end of day 28, right ventricular systolic pressure (RVSP) was measured by right heart catheterization and RV hypertrophy was calculated by Fulton index as the weight ratio of RV and (LV+septum). In study 2, rats were subcutaneously administered either 60 mg/kg of monocrotaline or 5 mL/kg of saline. […] Body weight change from day 0-35 were used for general toxicity assessment and animal mortality was calculated by day 35.\nRats were anesthetized with isoflurane and were kept at approximately 37° C. using a heated platform (Heated Hard Pad 1, Braintree Scientific) and circulating heated water pump (T/Pump Classic, Gaymar Industries). The neck area for each rat was prepared for surgery by depilating over the right common Carotid artery and right Jugular vein. An incision was made and the right Jugular vein was isolated with care as to not damage the Carotid artery and/or the Vagus nerve. A piece of 5-0 silk suture was placed under the isolated Jugular vein to allow for retraction of the vessel cranially, then a 23-gauge needle was used to introduce a hole into the Jugular vein. A pressure catheter (Micro-tip catheter transducer SPR-1000, Millar Instruments, Inc.) was inserted into the opening of the Jugular vein and advanced past the right atrium into the right ventricle. The catheter was connected to pressure/volume instrument (MPVS-300, Millar Instruments, Inc.) that measured heart rate as well as both diastolic and systolic right ventricular pressures. These parameters were digitally acquired using a data acquisition system (PowerLab 4/35, AD Instruments). LabChart Pro 7.0 software (AD Instruments) was used to analyze right ventricular pressures. Readings were quantified from a 60 second interval of the pressure tracing (following a 2 minute period of recording to allow for pressure stabilization). The parameters analyzed were right ventricular systolic pressures (RVSP), heart rate (HR) and rate of right ventricular pressure rise (dP/dt max).\nAfter the in vivo hemodynamic measurements, animals were euthanized by exsanguinations under anesthesia and then RV free wall, left ventricle (LV) and septum tissue were harvested and weighted. RV hypertrophy was calculated by Fulton index as the weight ratio of RV and (LV+septum). Then, RV tissue was saved frozen (−80° C.) for biochemical analyses."}, "hypoxia/sugen PAH mice [5]": {"test_system": "hypoxia/sugen PAH mice", "assay_type": "in vivo, mouse", "settings": "Hypoxia/Sugen Mice - Therapeutic dose response; dose mg/kg: H4H13145P 1, Macitentan 30, REGN2176 25", "procedure": "For the second study (Study 2), 12 to 14 weeks old male C57/BL mice, (Taconic) were used for the studies. Mice were separated into treatment groups by weight such that starting body weights were similar among different groups. […] Mice in hypoxia chamber were given VEGF receptor inhibitor Sugen5146 at 20 mg/kg subcutaneously once a week for 6 weeks. The mice were administered antibodies starting on day 21 for 3 weeks as outlined in Table 12. By the end of week 6, right ventricular systolic pressure (RVSP) was measured by right heart catheterization and RV hypertrophy was calculated by Fulton index as the weight ratio of RV and (LV+septum). […]\nMice were anesthetized with isoflurane and were kept at approximately 37° C. using a heated platform (Heated Hard Pad 1, Braintree Scientific) and circulating heated water pump (T/Pump Classic, Gaymar Industries). […] The catheter was connected to pressure/volume instrument (MPVS-300, Millar Instruments, Inc.) that measured heart rate as well as both diastolic and systolic right ventricular pressures. […] Readings were quantified from a 60 second interval of the pressure tracing (following a 2 minute period of recording to allow for pressure stabilization). The parameters analyzed were right ventricular systolic pressures (RVSP), heart rate (HR) and rate of right ventricular pressure rise (dP/dt max). […]"}, "monocrotaline rats [6]": {"test_system": "monocrotaline rats", "experiment": "Study #2, 5 weeks Monocrotaline severe PAH rats survival (Example 19)", "assay_type": "in vivo, rat", "procedure": "In order to evaluate the effect of two inhibitory anti-PDGF-B antibodies in the rat monocrotaline model of pulmonary arterial hypertension, 2 studies were performed: study #1 was performed on 4-week Monocrotaline PAH Rats with Preventive Drug Treatment; and study #2 was performed on 5-weeks Monocrotaline Severe PAH Rats Survival with Therapeutic Drug Treatment (Tables 26-27).\nSix to seven weeks old male Sprague Dawley rats were used. Rats were separated into treatment groups such that body weights were similar among different groups. […] On day one, rats were subcutaneously administered either 40 mg/kg of monocrotaline or 5 mL/kg or saline as control. On day 28, right ventricular systolic pressure (RVSP) was measured by right heart catheterization and RV hypertrophy was calculated by Fulton index as the weight ratio of RV to (LV+septum). In study #2, rats were subcutaneously administered either 60 mg/kg of monocrotaline or 5 mL/kg of saline. […] Small molecule group was orally administered macitentan at 30 mg/kg daily. Body weight change from day 0-35 were used for general toxicity assessment and animal mortality and median survival time were calculated by day 35."}, "[7]": {"settings": "Monocrotaline Rat - Prevention, dose mg/kg: H4H13145P 25, Macitentan 30, Sotatercept 25"}, "[8]": {"settings": "MCT 60 mg/kg rats, treatment from day 14, antibody SC twice per week, Macitentan 30 mg/kg daily gavage"}},
  "note": "pIC50: −log10 of the molar value. Where two headings read alike, the source gives them in different places. Marks after values point to notes of the source that are not given here.",
  "data": [
    {"compound": "COc1ccc(-c2cncc(N[C@@H](C)c3cccc(NC(=O)c4cncc(C)c4)c3)n2)cc1OC", "note": "[Seralutinib]", "values": [
      {"measurement": "pIC50", "setting": "PDGF-AA", "value": 8.05},
      {"measurement": "pIC50", "setting": "Human PDGF-AA", "value": 8.00},
      {"measurement": "pIC50", "setting": "Human PDGF-DD", "value": 7.57},
      {"measurement": "pIC50", "setting": "PDGF-BB [1]", "value": 8.22},
      {"measurement": "pIC50", "setting": "PDGF-BB [2]; PASMC, 0.5 nM PDGF-BB constant, read-out: IC50 Calcium Flux, PDGF-BB", "value": 8.00},
      {"measurement": "inhibition in words", "setting": "PDGF-BB [2]; PDGF-AA, PDGF-DD and PDGF-BB driven calcium flux and proliferation", "value": "fully inhibited"},
      {"measurement": "pIC50", "setting": "PDGF-BB [2]; range over PDGF-AA, PDGF-DD, PDGF-BB driven calcium flux and proliferation, read-out: IC50 values", "value": "7.57 to 8.22"},
      {"measurement": "pIC50", "setting": "PDGF-DD", "value": 8.22}
    ]},
    {"compound": "CCCNS(=O)(=O)Nc1ncnc(OCCOc2ncc(Br)cn2)c1-c1ccc(Br)cc1", "note": "[Macitentan, reference compound]", "values": [
      {"measurement": "% reduction in RV hypertrophy", "setting": "hypoxia/sugen PAH mice [3]", "value": "trend"},
      {"measurement": "Reduction in RVSP", "setting": "hypoxia/sugen PAH mice [3]", "value": "19-25 mmHg"},
      {"measurement": "% reduction in RV hypertrophy", "setting": "monocrotaline rats [4]; [7]", "value": "trend"},
      {"measurement": "lessening of right ventricular hypertrophy (Fulton Index)", "setting": "monocrotaline rats [4]; monocrotaline 40 mg/kg, antibody 25 mg/kg SC 2x/week, Macitentan 30 mg/kg P.O. daily, versus isotype control", "value": "failed to reduce"},
      {"measurement": "right ventricular systolic pressure elevation", "setting": "monocrotaline rats [4]; monocrotaline 40 mg/kg, antibody 25 mg/kg SC 2x/week, Macitentan 30 mg/kg P.O. daily, week 4", "value": "significantly reduced"},
      {"measurement": "% reduction in RV hypertrophy", "setting": "hypoxia/sugen PAH mice [5]", "value": "trend"},
      {"measurement": "Reduction in RVSP", "setting": "hypoxia/sugen PAH mice [5]", "value": "19-25 mmHg"},
      {"measurement": "Death # by day 35", "setting": "monocrotaline rats [6]; [8]", "value": 11},
      {"measurement": "Survival rate by day 35", "setting": "monocrotaline rats [6]; [8]", "value": 0, "unit": "%*"},
      {"measurement": "median survival", "setting": "monocrotaline rats [6]; [8]", "value": 20, "unit": "days"},
      {"measurement": "survival", "setting": "monocrotaline rats [6]; monocrotaline 60 mg/kg, antibody 25 mg/kg 2 times a week from day 14, macitentan 30 mg/kg daily, day 35", "value": "failed to prolong survival"}
    ]},
    {"compound": "Sotatercept: ACVRIIa-Fc, vessel remodeling comparator drug", "values": [
      {"measurement": "Reduction in RVSP", "setting": "monocrotaline rats [4]; [7]", "value": 14, "unit": "mmHg"}
    ]},
    {"compound": "Cc1ccc(NC(=O)c2ccc(CN3CCN(C)CC3)cc2)cc1Nc1nccc(-c2cccnc2)n1", "note": "[Imatinib]", "values": [
      {"measurement": "pIC50", "setting": "Human PDGF-AA", "value": 6.57}
    ]}
  ]
}
